We go through one compound from patent US11351218B2, “Composition for preventing or treating glioblastoma comprising Platycodon grandiflorum A. De Candolle, Scutellaria baicalensis, Phellodendron amurense Ruprecht or Rubus coreanus” (University-Industry Cooperation Group of Kyung Hee …, priority 2019, dated 2022).

Structures are written as SMILES.

Data set [1] relates to U87MG and U373MG cells. The data set is described as follows: WST1 cell viability assay, GBM cells. Format: cell-based, human. As for the experimental part:
FIGS. 6A and 6B show the results that PD induces a decrease in cell viability and vacuole formation. […] Data shown represent the means of quintuplicate measurements which were repeated three times. The results are presented as a percentage of control (means±SD).
Cell cytotoxicity was assessed by WST1 assay. U87 and U373 cells were each seeded in a 96-well plate (5×10^3 cells/well) and treated with different concentrations of platycodin D (PD). Then, cells were incubated with a WST1 reagent (Dogen, Seoul, Korea) for 2 hours before reading the plate. Absorbance was measured at 450 nm using an ELISA reader (Versa Max, Molecular Devices, Sunnyvale, Calif., USA).

In data set [2] the test system is U87MG and U373MG cells. The data set is described as follows: Cholesterol cell-based detection assay (filipin III staining) in GBM cells. Set-up: species or system human. The settings on record: PD 10 μM or U18666a 1 μM, 24 hours. The procedure:
FIGS. 15A and 15B show the results that PD promotes accumulation of cholesterol in lysosomes. Cells were treated with DMSO, PD (10 μM), or U18666a (1 μM) for 24 hours. […] Total cholesterol levels are expressed in cholesterol (μg) per protein (mg) of cell lysate and are shown as means±SD from two independent experiments.
Cells grown on coverslips were treated with the materials. Then, the cells were fixed with 4% PFA at room temperature for 10 minutes. The solution of Filipin III (Cayman) was added for staining of […] cholesterol and the samples were incubated in a dark room for 30 minutes. The images were examined under a Zeiss laser confocal microscope.
The present inventors concluded that PD inhibits the maturation of autophagosome into autolysosomes by inhibiting lysosomal degradation and an autophagosome-lysosome fusion in GBM cells. […] To examine whether the defect in the autophagosome-lysosome fusion by PD is due to altered intracellular cholesterol levels, the PD-treated GBM cells were stained with filipin-III, which is a fluorescent dye that binds to cholesterol. […] As can be confirmed in FIG. 14A, this filipin-III staining pattern is very similar to that found in GBM cells treated with U18666A, implying that PD blocks cholesterol release from lysosome and accumulates cholesterol in lysosomes.

For a further data set, the system named is cell-surface LDLR. The data set is described as follows: Cell surface LDLR analysis by flow cytometry, GBM cells. Format: cell-based, human. The settings on record: PD 10 μM or U18666a 1 μM, 24 hours. As for the experimental part: FIGS. 16A to 16D show the results that PD increases the expression of LDLR on cell surfaces in GBM cells. […] GAPDH was used as a loading control. […] GAPDH was used as a loading control.
Cells treated as described in FIG. 16 were separated from plates and resuspended in PBS. After washing with 1% BSA in PBS, the cells were incubated with a primary antibody against human LDLR (Abcam) for 30 minutes. Then, the cells were washed before incubation with an Alexa-Fluor 488-conjugated secondary antibody (Invitrogen) for 30 minutes. The stained cells were washed and resuspended. Fluorescence was analyzed by a FACScalibur flow cytometer (Becton Dickinson, San Jose, Calif., USA) using CellQuest™ software.
Brain is the most cholesterol-rich organ of the body, containing about 20% of total body cholesterol. […] As can be confirmed in FIG. 16A, in consistent with these reports, the LDLR protein level was markedly elevated in U87MG and U373MG cells relative to normal human astrocytes. […] Then, the cell surface expression of LDLR was confirmed by flow cytometry.
In general terms: In flow cytometry, cells or beads pass a laser one at a time.

In data set [3] the test system is U87MG and U373MG cells. The data set is described as follows: LysoTracker assay with GFP-LC3B (autophagosome-lysosome fusion) in GBM cells. It is filed as cell-based, human. The conditions noted are these: PD 10 μM, 24 hours. The source says: […] Then, cells were stained with LysoTracker (red) and DAPI (blue). The merged images show an overlap between GFP-LC3 and LysoTracker (yellow). The panels on the right are higher-magnification images of the boxed regions.
Cultured cells seeded in plates with microscope coverslips were transfected with a pGFP-LC3B plasmid using Lipofectamine 3000 (Thermo Fisher Scientific) according to the manufacturer's instructions. After the transfection, the cells were fixed with 4% paraformaldehyde (PFA) in phosphate-buffered saline (PBS) at room temperature for 10 minutes. The images were examined under a laser confocal microscope (Zeiss, Oberkochen, Baden-Wurttemberg, Germany).
To stain acidic compartments, 50 nM LysoTrackerRedDND-99 (Thermo Fisher Scientific) was added to a medium at 37° C. with 5% CO2 for 30 minutes prior to fixation. The nuclei were labeled with 4,6-diamidino-2-phenylindole (DAPI, Sigma). The slides were finally mounted using a Faramount mounting medium (Dako, Glostrup, Denmark). The images were examined under a Zeiss laser confocal microscope.
Experimental Result 11. PD Blocks Fusion of Autophagosomes with Lysosomes. Since p62 was accumulated in autophagosomes by PD treatment, it was speculated that PD may cause the lysosomal dysfunction like bafilomycin A1, which inhibits vacuolar H^+-ATPase (V-ATPase)-dependent lysosomal acidification and blocks autophagosome-lysosome fusion. Thus, the PD-treated cells with LysoTracker Red, which is a marker for acidic compartment including lysosomes was stained to examine the colocalization of GFP-LC3B.

Data set [4] relates to U87MG and U373MG cells. The data set is described as follows: Clonogenic assay, GBM cells. The conditions noted are these: PD 10 μM or 20 μM, 7 days. It is filed as cell-based, human. The procedure: FIGS. 19A and 19B show the results that MβCD restores PD-mediated decrease in cell viability. […] Data shown represent the means of quintuplicate measurements which were repeated three times. The results are presented as a percentage of control (means±SD).
Approximately 2×10^3 cells were seeded into each 6-well plate and then treated as described in FIG. 19. After 7 days, the cells were washed with PBS and stained with 0.5% crystal violet.
Furthermore, as can be confirmed in FIG. 19B, a colony formation assay was performed to confirm the effects of MβCD on PD-mediated GBM cell death.

The next data set relates to LDLR-silenced GBM cells. The data set is described as follows: WST1 assay and immunoblot in LDLR-silenced (shLDLR) GBM cells. It is filed as cell-based, human. An excerpt: FIGS. 20A and 20B show the results that downregulation of LDLR restores inhibition of autophagy and cell viability. […] The expressions of LDLR, LC3B, SQSTM1, and pro/active CTSB were detected by immunoblot analysis. GAPDH was used as a loading control. […] Data shown represent the means of quintuplicate measurements which were repeated three times. The results are presented as a percentage of control (means±SD).
shRNA sequences against LDLR were cloned into a lentiviral vector. For the production of lentivirus, the vectors were co-transfected with psPAX2 and pMD2.G in 293T cells using Lipofectamine 3,000 (Invitrogen). Then, the cultured medium was harvested. The viral supernatant was applied to GBMs and cells were selected in puromycin for 3 additional days. The shRNA sequence was as follows. shLDLR sequence: 5′-CCACTTGTAGGAGATGCAT-3′ (SEQ ID NO: 7).
The present inventors hypothesized that the enhanced expression of LDLR and uptake of exogenous cholesterol by PD may promote accumulation of cholesterol in lysosomes and contribute to PD-mediated inhibition of autophagy and cell viability in GBM cells. To this end, the expression of LDLR gene was silenced in GBM cells using lentiviral shRNA transduction.
Background: Tetrazolium dyes change colour on reduction, which living cells bring about.

For the compound `C[C@@H]1O[C@@H](O[C@H]2[C@H](OC(=O)[C@]34CCC(C)(C)C[C@H]3C3=CC[C@@H]5[C@@]6(C)C[C@H](O)[C@H](O[C@@H]7O[C@H](CO)[C@@H](O)[C@H](O)[C@H]7O)C(CO)(CO)[C@@H]6CC[C@@]5(C)[C@]3(C)C[C@H]4O)OC[C@H](O)[C@@H]2O)[C@H](O)[C@H](O)[C@H]1O[C@@H]1OC[C@@H](O)[C@H](O[C@@H]2OC[C@](O)(CO)[C@H]2O)[C@H]1O` [PD, platycodin D], the “viability of GBM cells” value in the data set with U87MG and U373MG cells [1] (10 μM PD, 3 days) is listed as “reduced the viability”. Further, the “percentage of viable cells” value in the data set with U87MG and U373MG cells [1] (PD 0-20 μM, 48 hours, dose-dependent) is on record as “significantly decreased”. In addition, the cell viability entry in the data set with U87MG and U373MG cells [1] (PD 10 μM, 48 hours, GBM cells, percentage of control) is on record as “approximately 60%”. Moreover, in the data set with U87MG and U373MG cells [2], the “cellular cholesterol distribution (filipin-III staining)” value is “induces cholesterol accumulation within intracellular vesicles”. Also, the “cell surface expression of LDLR” value in the data set on cell-surface LDLR was “shift of the FL-1 histogram peak toward right”. Moreover, the “lysosomal acidification (LysoTracker Red fluorescence)” value in the data set with U87MG and U373MG cells [3] was “does not affect lysosomal acidification”. The “colocalization of GFP-LC3B and LysoTracker Red staining” value with U87MG and U373MG cells [3] (BafA1 100 nM, Rapa 1 μM) is on record as “significant separation”. Further, in the data set on U87MG and U373MG cells [4], the colony-forming ability entry is recorded as “abolished”. For the same compound, in the data set on LDLR-silenced GBM cells (LDLR-silenced GBM cells, PD 10 μM or 20 μM, WST1), the “reduction of cell viability” value is listed as “less effective”. Also, in the data set on LDLR-silenced GBM cells (knockdown of LDLR, PD 5 μM or 10 μM, 24 hours, immunoblot), the “LC3-II, p62 and cathepsin B response to PD” value is “prevented the upregulation of LC3-II and p62 as well as the inactivation of cathpsin B”.
